Experimental data from PubChem BioAssay AID652102 (NMMLSC, 2013).

Molecular target: Botulinum neurotoxin type A (Clostridium botulinum (strain Hall / ATCC 3502 / NCTC 13319 / Type A)) (UniProt P0DPI1)
Experiment: BoNT/A light chain protease inhibitors, confirmation, biochemical, FRET, full-length substrates, powder set 1 (AID 652102)
Conditions: BoNT/A LC protease, FRET full-length substrate cleavage

Sequence of Botulinum neurotoxin type A (Clostridium botulinum (strain Hall / ATCC 3502 / NCTC 13319 / Type A)) (P0DPI1 whole entry, looked up): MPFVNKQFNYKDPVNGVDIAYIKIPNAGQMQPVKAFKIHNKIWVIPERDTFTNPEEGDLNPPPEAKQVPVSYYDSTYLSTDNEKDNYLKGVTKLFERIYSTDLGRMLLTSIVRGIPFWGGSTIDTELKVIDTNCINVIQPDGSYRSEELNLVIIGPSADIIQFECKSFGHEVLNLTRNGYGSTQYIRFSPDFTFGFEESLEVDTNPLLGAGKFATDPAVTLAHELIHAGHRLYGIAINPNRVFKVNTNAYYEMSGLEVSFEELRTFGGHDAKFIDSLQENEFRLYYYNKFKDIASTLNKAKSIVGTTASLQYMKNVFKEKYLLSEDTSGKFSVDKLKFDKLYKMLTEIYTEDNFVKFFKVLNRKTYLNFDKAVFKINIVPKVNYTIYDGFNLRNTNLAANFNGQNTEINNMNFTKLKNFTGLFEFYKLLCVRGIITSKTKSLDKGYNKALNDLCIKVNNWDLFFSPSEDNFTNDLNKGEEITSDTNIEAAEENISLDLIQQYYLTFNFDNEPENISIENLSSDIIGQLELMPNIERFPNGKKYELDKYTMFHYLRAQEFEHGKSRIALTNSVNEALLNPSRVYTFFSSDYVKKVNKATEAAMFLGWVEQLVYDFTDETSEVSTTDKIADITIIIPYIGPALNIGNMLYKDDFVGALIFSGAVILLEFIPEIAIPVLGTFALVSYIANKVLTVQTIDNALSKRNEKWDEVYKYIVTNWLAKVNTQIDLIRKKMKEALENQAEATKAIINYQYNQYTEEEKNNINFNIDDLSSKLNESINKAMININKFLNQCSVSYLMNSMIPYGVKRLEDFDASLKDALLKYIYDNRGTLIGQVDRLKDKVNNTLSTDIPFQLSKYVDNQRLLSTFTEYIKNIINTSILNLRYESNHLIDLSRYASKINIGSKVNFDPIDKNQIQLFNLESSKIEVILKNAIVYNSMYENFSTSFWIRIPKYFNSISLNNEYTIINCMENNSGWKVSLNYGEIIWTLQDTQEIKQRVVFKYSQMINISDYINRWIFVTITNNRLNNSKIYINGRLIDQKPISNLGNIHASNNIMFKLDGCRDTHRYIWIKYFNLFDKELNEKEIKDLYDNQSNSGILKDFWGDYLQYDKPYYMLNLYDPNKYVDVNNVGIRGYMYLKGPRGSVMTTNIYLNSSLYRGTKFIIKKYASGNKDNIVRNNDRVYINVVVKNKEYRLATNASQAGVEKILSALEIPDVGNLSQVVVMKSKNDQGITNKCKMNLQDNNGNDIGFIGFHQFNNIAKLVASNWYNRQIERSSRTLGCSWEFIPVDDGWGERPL

## c1ccc(-c2cn3nc(-c4ccccc4)c(-c4ccccc4)nc3n2)cc1
  IC50: 600 nM
